Assay results as given in ChEMBL document CHEMBL5465560, “Selectivity Literature for EUbOPEN Chemogenomic Library” (2024).
Blank lines part the entries; values can stand above or below the compound they belong to.

What was measured:
[1] = biological target: Tyrosine-protein kinase Yes (Homo sapiens) (UniProt P07947); conditions: at 10 µM
[2] = biological target: T1, Serine/threonine-protein kinase 3 (Homo sapiens) (UniProt Q13188); assay: Selectivity interaction (ActivX KiNativ screen (kinase selectivity in THP-1 cell lysates)) EUB0000639a STK3; assay type: subcellular; conditions: lysate
T1 sequence (whole entry): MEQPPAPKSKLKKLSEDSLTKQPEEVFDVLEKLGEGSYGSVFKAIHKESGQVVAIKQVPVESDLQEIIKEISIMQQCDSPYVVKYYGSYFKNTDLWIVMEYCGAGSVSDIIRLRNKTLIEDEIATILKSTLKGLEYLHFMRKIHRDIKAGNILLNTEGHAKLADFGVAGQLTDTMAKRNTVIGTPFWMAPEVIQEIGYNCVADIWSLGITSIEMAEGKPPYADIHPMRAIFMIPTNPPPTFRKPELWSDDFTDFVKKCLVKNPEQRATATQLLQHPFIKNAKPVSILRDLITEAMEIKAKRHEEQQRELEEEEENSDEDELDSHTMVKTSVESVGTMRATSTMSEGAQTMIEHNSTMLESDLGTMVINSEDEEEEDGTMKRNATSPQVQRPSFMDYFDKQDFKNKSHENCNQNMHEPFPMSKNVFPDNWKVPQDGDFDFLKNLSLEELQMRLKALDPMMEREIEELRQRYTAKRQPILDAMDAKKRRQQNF

[3] = biological target: NT-3 growth factor receptor (Homo sapiens, UniProt Q16288); assay: Selectivity interaction (Kinase panel (Z-LYTE Assay)) EUB0001632a NTRK3; conditions: at 10 µM
[4] = biological target: Tyrosine-protein kinase Fer (Homo sapiens) (UniProt P16591); conditions: at 10 µM
[5] = biological target: T2, Serine/threonine-protein kinase NLK (Homo sapiens) (UniProt Q9UBE8); conditions: at 10 µM
T2 sequence (whole entry): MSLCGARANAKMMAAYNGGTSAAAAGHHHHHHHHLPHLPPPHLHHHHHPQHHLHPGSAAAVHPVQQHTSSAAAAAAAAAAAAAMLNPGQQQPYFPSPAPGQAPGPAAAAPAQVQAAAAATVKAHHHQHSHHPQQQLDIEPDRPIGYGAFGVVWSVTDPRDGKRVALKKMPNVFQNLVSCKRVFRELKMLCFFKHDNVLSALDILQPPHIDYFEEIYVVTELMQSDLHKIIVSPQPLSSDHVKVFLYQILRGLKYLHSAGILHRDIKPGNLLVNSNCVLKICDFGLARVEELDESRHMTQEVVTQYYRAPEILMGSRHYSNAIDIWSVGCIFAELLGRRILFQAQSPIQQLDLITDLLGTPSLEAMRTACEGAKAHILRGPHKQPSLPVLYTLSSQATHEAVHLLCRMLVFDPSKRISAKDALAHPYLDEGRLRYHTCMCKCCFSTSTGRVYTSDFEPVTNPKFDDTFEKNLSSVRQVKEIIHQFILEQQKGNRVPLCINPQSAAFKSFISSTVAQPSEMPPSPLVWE

[6] = biological target: Calcium/calmodulin-dependent protein kinase type 1G (Homo sapiens) (UniProt Q96NX5); assay: Selectivity interaction (KinomeScan (DiscoverX)) EUB0000229b CAMK1G; conditions: at 10 µM
[7] = biological target: Serine/threonine-protein kinase Chk2 (Homo sapiens) (UniProt O96017); assay: Selectivity interaction (KinomeScan (DiscoverX)) EUB0000045b CHEK2
[8] = biological target: T2, Serine/threonine-protein kinase NLK (Homo sapiens); assay: Selectivity interaction (KinomeScan (DiscoverX)) EUB0000655a NLK; conditions: at 10 µM
[9] = biological target: Ribosomal protein S6 kinase alpha-5 (Homo sapiens) (UniProt O75582); assay: Selectivity interaction (ActivX KiNativ screen (ex vivo kinase selectivity in human PBMCs)) EUB0001619a RPS6KA5; assay type: cell-based; conditions: PBMC, at 1 µM
[10] = biological target: Serine/threonine-protein kinase 25 (Homo sapiens) (UniProt O00506); assay: Selectivity interaction (ActivX KiNativ screen (ex vivo kinase selectivity in human PBMCs)) EUB0001619a STK25; assay type: cell-based; conditions: PBMC, at 1 µM
[11] = biological target: T3, Dual specificity mitogen-activated protein kinase kinase 7 (Homo sapiens) (UniProt O14733); assay: Selectivity interaction (KinomeScan (DiscoverX)) EUB0000618a MAP2K7; conditions: at 10 µM
T3 sequence (whole entry): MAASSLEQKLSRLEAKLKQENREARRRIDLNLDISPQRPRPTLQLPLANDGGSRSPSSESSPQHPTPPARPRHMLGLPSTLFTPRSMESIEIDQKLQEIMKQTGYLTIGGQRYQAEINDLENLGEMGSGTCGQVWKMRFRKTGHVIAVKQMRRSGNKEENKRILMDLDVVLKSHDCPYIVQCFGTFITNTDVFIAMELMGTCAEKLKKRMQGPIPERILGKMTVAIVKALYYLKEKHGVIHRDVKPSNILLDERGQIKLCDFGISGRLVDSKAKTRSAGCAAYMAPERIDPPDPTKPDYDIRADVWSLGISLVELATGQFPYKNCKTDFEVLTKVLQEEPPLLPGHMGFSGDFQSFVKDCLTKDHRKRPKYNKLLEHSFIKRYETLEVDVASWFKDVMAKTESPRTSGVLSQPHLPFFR

[12] = biological target: Serine/threonine-protein kinase 10 (Homo sapiens) (UniProt O94804); assay: Selectivity interaction (KinomeScan (DiscoverX)) EUB0000607a STK10; conditions: at 10 µM
Chain of Serine/threonine-protein kinase 10 (Homo sapiens) (O94804 whole entry, looked up): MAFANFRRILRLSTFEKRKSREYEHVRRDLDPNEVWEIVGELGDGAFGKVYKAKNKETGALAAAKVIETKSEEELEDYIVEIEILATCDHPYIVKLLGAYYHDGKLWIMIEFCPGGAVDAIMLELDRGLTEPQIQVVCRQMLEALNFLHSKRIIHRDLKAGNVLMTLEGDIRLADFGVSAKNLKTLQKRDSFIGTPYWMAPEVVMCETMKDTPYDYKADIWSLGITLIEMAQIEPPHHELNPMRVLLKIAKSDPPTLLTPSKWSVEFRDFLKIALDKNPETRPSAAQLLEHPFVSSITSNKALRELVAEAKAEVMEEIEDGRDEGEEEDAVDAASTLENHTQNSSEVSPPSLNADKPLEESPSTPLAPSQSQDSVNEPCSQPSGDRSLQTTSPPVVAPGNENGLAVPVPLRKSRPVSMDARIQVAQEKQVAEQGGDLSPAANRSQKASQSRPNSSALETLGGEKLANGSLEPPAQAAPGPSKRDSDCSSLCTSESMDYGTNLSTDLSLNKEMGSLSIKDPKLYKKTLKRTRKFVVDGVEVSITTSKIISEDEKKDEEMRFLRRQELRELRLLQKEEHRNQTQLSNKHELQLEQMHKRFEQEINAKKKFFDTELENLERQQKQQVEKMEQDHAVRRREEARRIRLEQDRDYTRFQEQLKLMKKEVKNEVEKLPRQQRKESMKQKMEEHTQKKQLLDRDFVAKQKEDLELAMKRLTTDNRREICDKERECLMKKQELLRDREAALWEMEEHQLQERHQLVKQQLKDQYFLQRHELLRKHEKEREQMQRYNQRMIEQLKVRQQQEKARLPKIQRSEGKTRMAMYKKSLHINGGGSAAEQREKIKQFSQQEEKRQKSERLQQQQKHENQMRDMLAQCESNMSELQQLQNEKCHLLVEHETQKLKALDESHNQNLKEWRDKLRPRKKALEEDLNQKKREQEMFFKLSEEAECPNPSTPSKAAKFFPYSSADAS

Chain of Serine/threonine-protein kinase Chk2 (Homo sapiens) (O96017 whole entry): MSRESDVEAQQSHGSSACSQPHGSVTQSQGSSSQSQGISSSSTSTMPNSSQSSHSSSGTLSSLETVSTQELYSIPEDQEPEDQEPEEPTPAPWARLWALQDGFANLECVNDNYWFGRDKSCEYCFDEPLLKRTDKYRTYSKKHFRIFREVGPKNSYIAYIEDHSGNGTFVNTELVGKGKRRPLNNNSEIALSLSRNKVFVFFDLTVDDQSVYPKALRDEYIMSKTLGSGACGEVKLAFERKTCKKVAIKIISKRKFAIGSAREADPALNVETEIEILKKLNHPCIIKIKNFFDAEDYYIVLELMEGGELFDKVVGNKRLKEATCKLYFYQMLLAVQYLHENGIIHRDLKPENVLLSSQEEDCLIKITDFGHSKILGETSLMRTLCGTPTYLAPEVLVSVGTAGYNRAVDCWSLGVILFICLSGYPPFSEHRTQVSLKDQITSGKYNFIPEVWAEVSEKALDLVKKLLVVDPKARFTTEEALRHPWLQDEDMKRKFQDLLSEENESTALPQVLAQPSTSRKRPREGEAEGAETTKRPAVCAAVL
Chain of Serine/threonine-protein kinase 25 (Homo sapiens) (O00506 whole entry, looked up): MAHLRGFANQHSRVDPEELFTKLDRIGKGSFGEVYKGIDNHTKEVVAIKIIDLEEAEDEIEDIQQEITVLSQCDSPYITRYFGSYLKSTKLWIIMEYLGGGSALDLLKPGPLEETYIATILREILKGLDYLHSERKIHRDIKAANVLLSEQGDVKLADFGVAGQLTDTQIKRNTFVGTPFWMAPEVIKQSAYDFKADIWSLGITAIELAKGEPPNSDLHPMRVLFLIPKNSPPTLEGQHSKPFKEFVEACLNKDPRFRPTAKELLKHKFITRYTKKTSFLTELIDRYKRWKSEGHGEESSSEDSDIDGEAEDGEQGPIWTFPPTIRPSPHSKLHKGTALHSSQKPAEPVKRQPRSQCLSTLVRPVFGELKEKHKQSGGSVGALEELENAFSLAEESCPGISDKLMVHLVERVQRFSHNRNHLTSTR
Chain of Tyrosine-protein kinase Yes (Homo sapiens) (P07947 2-543 limits assumed): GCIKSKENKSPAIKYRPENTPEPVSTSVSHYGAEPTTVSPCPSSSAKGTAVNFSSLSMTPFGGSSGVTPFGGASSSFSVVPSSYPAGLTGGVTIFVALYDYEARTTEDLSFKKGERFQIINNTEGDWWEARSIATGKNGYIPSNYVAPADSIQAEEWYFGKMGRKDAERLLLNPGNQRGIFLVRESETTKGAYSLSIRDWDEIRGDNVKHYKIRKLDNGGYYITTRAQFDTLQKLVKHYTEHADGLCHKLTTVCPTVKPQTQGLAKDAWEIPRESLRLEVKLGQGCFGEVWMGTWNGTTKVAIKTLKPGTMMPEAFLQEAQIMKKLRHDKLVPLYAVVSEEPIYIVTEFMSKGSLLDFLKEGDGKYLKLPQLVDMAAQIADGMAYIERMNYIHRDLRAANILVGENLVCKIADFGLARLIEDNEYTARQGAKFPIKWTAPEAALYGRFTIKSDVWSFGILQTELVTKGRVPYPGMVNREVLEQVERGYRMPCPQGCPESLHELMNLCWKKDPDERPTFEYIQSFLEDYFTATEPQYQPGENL
Chain of Calcium/calmodulin-dependent protein kinase type 1G (Homo sapiens) (Q96NX5 whole entry): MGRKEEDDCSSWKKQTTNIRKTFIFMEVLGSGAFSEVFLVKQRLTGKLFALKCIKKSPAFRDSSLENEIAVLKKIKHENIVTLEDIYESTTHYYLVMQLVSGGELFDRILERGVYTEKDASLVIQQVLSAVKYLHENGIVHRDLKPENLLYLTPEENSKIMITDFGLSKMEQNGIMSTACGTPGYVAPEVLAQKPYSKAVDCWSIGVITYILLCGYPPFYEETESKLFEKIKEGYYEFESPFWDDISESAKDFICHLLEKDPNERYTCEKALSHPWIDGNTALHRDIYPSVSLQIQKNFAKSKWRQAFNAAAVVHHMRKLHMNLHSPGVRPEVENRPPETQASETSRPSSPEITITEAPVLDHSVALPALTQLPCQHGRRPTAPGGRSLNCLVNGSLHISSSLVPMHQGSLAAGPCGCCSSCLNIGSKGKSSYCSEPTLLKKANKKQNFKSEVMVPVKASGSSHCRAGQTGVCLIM
Chain of Ribosomal protein S6 kinase alpha-5 (Homo sapiens) (O75582 whole entry, looked up): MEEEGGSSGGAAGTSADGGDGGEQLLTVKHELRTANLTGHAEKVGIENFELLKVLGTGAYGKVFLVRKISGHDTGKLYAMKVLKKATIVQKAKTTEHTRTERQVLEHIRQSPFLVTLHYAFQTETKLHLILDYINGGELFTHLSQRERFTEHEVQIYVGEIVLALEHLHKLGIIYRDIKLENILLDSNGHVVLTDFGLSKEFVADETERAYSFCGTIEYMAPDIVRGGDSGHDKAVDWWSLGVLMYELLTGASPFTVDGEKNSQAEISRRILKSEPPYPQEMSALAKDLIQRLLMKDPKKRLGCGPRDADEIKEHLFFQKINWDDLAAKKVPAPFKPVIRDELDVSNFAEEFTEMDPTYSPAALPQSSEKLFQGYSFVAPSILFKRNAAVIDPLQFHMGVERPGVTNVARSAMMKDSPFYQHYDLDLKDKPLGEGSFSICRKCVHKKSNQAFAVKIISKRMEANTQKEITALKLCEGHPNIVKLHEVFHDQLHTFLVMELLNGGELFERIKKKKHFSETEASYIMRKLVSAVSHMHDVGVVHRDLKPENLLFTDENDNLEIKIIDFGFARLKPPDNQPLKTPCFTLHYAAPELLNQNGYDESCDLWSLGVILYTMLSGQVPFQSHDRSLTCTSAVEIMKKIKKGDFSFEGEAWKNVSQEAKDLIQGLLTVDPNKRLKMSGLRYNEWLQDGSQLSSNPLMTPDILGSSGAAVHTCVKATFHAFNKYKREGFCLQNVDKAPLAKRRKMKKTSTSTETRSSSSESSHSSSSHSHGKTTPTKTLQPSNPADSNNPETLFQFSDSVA
Chain of Tyrosine-protein kinase Fer (Homo sapiens) (P16591 whole entry, looked up): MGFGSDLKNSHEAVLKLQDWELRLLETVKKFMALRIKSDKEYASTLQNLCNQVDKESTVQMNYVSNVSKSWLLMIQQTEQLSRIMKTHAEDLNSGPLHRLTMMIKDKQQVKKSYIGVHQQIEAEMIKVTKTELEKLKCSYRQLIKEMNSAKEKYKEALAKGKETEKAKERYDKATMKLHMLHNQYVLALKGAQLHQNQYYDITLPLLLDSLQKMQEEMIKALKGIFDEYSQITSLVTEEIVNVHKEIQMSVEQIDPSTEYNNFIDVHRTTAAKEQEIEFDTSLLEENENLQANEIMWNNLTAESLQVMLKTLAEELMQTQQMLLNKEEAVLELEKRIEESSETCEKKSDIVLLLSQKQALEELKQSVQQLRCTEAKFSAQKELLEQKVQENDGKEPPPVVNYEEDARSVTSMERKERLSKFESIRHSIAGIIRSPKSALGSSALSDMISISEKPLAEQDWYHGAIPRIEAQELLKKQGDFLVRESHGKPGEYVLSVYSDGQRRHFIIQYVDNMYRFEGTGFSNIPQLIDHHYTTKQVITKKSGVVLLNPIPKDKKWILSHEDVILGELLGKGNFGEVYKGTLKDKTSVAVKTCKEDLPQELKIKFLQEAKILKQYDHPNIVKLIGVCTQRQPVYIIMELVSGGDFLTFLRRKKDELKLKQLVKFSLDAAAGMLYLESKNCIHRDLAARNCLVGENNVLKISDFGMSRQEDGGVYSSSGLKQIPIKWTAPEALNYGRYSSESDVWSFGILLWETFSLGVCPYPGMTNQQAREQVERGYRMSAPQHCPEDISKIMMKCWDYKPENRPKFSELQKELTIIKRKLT

SMILES: Cc1cc([C@@H](C)Nc2ccccc2C(=O)O)c2nc(N3CCOCC3)cc(=O)n2c1 [AZD-6482]
% of control [1]: 100%

% of inhibition ([2]; at 0.01 µM): -6.8%
% of inhibition ([2]; at 0.04 µM): -5.9%
% of inhibition ([2]; at 0.2 µM): -9.3%
% of inhibition ([2]; at 1 µM): 4%
% of inhibition ([2]; at 5 µM): 11.1%
SMILES: CC[C@@H]1[C@H](F)C(=O)N[C@@H]1COc1nccc2cc(C(N)=O)c(OC)cc12 [ZIMLOVISERTIB]

% of control [3]: 19%
SMILES: Cn1cc(-n2cnc3c(NCc4nc5cc(Cl)c(Cl)cc5[nH]4)nc(N4CCOCC4)nc32)cn1

% of control [4]: 100%
SMILES: CCN(CC)CCCCNc1ncc2cc(-c3cc(OC)cc(OC)c3)c(NC(=O)NC(C)(C)C)nc2n1

SMILES: COCC(=O)NC/C=C/c1ccc2ncnc(Nc3ccc(Oc4ccc(C)nc4)c(C)c3)c2c1 [CP-724714]
% of control [5]: 100%

SMILES: COc1cc(N(C)c2ccnc3ccc(C(F)(F)F)cc23)cc(OC)c1OC
% binding [6]: 95%

SMILES: C=CC(=O)Nc1cc(-n2c(=O)ccc3cnc4ccc(-c5ccc(NS(C)(=O)=O)cc5)cc4c32)ccc1C
% of control ([7]; at 1 µM): 100%
% of control ([7]; at 10 µM): 100%

SMILES: CN(C)CCOc1ccc(-c2nc(-c3ccncc3)c(-c3ccc4c(c3)CC/C4=N\O)[nH]2)cc1
% of control [8]: 90%

SMILES: N#Cc1cccc(-c2c[nH]c3ncnc(N4CCOCC4)c23)c1
% of inhibition [9]: 20%
% of inhibition [10]: 61%

SMILES: O[C@H]1CC[C@H](Nc2ncc3nc(Nc4c(F)cc(F)cc4F)n([C@H]4CCOC4)c3n2)CC1
% of control [11]: 94%

SMILES: CNC(=O)Nc1ccc(-c2nc(N3CC4CCC(C3)O4)c3cnn(C4CCC5(CC4)OCCO5)c3n2)cc1
% of control [12]: 99%
